Patent US20230293519A1, “INTEGRIN INHIBITORS AND USES THEREOF IN COMBINATION WITH OTHER AGENTS” (Pliant Therapeutics, Inc., priority 2021, published 2023)

Columns and labels:
[1] = Unbound plasma concentration in the PET/CT study; format: in vivo; conditions: human
Method: This Example was conducted as an open-label, single-dose (60 mg, 120 mg, 240 mg or 320 mg) clinical trial evaluating αvβ6 receptor occupancy in the lungs, safety, and pharmacokinetics of Compound #5 in subjects with IPF. To date, 4 participants have completed the study. Each of these 4 participants was undergoing a pre-existing course of therapy using one of the SoC (Standard of Care) compounds, nintedanib. These participants continued their pre-existing nintedanib therapy throughout this study. Knottin tracer uptake kinetics were compared pre- and post-dose of the disclosed compound, as measured by standardized uptake values (SUVs) and parameters estimated from kinetic modeling in regions-of-interest on dynamic [^18F]FP-R01-MG-F2 PET/CT scans. […] Receptor occupancy was estimated from the output of the two-compartment model (VT, the […]) using standard equations and fitting algorithms, and corrections for VND (non-displaceable tracer binding). For example, in FIG. 10, the data points, shown as circles, are modeled by the following formula: […]
FIG. 9 is a graph of unbound plasma concentration (X-axis) vs Vt (Y-axis) for the baseline Vt at each dose, the measured Vt after each dose, and a fit line. FIG. 10 is a graph of unbound plasma concentration (X-axis) vs % receptor occupancy (Y-axis). FIG. 11 is a bar chart showing % target engagement for each subject and dose.

[2] = test system: fibrosis-related gene expression in explanted human lung tissue from patients with idiopathic pulmonary fibrosis; assay: nCounter Fibrosis Panel gene expression in precision cut lung slices from IPF explants; format: cell-based; conditions: IPF PCLS, 7 days, vs DMSO
Source text: Fibrosis-related gene expression in explanted human lung tissue from patients with idiopathic pulmonary fibrosis was examined in order to determine what impact combining Compound 5 treatment with standard-of-care drugs nintedanib or pirfenidone, has on the expression of such genes.
Samples used for this analysis are a subset (n = 4 of 7) of the lungs previously reported on in Decaris et al., Respir Res (2021) 22:265 (FIGS. 6 A and B). Briefly, tissue samples from patients with IPF were acquired at the time of lung transplantation. Precision cut lung slices were generated from the explants and cultured for 7 days in the presence of inhibitors (Compound 5, nintedanib, pirfenidone) at clinically relevant concentrations or vehicle (DMSO). Treated slices were lysed in mRNA-compatible buffer for gene expression analysis. For this study, the lysate from n = 6 slices per treatment per lung were pooled for analysis using the nCounter Fibrosis Panel (Nanostring) on the nCounter Max analyzer (Nanostring). This commercially available panel of 770 genes includes genes related to initial tissue damage response, chronic inflammation, proliferation of pro-fibrotic cells, and tissue modification leading to fibrotic disease. Technical quality control and normalization of raw Nanostring mRNA count data was performed using an R framework developed by Bhattacharya et al. (Bhattacharya A. et al., Brief Bioinform. 2021 May 20;22(3):bbaa163). The R packages limma (see URL www.bioconductor.org/packages/release/bioc/html/limma.html) and voom (Law, C.W. et al., Genome Biol. 2014 Feb 3;15(2):R29) were used to detect differentially expressed genes. Benjamini-Hochberg False Discovery Rate (FDR = 5%) was used to adjust p-values for multiple comparisons.

Structure (SMILES): COCCN(CCCCc1ccc2c(n1)NCCC2)CC[C@H](Nc1ncnc2ccccc12)C(=O)O [Compound 5, (S)-4-((2-methoxyethyl)(4-(5,6,7,8-tetrahydro-1,8-naphthyridin-2-yl)butyl)amino)-2-(quinazolin-4-ylamino)butanoic acid]
- concentration at 4 h ([1]; 60 mg, Subject A00, 60 mg single dose): 3.66 nM
- concentration at 4 h ([1]; 120 mg, Subject B120, 120 mg): 10 nM
- concentration at 4 h ([1]; 240 mg, Subject B240, 240 mg): 58.3 nM
- concentration at 4 h ([1]; 240 mg, Subject C240, 240 mg): 103 nM
- concentration at 4 h ([1]; 320 mg, Subject D320, 320 mg): 33.6 nM
- concentration at 4 h ([1]; Subject C320, 320 mg): 96.5 nM
- % Reduction of APOC2 expression [2]: -1.20%
- % Reduction of CDH2 expression [2]: 23.87%
- % Reduction of COL1A1 expression [2]: 38.78%
- % Reduction of COL4A2 expression [2]: 17.74%
- % Reduction of COL5A3 expression [2]: 30.59%
- % Reduction of FAP expression [2]: 37.30%
- % Reduction of FCGR3A/B expression [2]: 28.54%
- % Reduction of ITGAS expression [2]: 26.20%
- % Reduction of ITGB3 expression [2]: -2.48%
- % Reduction of LOX expression [2]: 39.38%
- % Reduction of LOXL2 expression [2]: 15.32%
- % Reduction of NID1 expression [2]: 19.25%
- % Reduction of PDGFRB expression [2]: 37.29%
- % Reduction of POSTN expression [2]: 48.61%
- % Reduction of SERPINE1 expression [2]: 35.77%
- % Reduction of SERPINH1 expression [2]: 22.68%
- % Reduction of SPP1 expression [2]: -15.73%
- % Reduction of TGFB1 expression [2]: 1.68%
- % Reduction of THBS2 expression [2]: 31.47%
- logFC of ALDH7A1 expression [2]: 0.57
- logFC of APOA2 expression [2]: 0.6135
- logFC of CCL13 expression [2]: 0.9445
- logFC of CD19 expression [2]: 0.5301
- logFC of CIITA expression [2]: 0.5895
- logFC of COL1A2 expression [2]: -0.8062
- logFC of COL3A1 expression [2]: -0.7449
- logFC of COL5A1 expression [2]: -0.9282
- logFC of COL6A3 expression [2]: -0.8313
- logFC of COL10A1 expression [2]: -2.782
- logFC of CXCL2 expression [2]: 0.7069
- logFC of CXCR4 expression [2]: -0.7822
- logFC of FAP expression [2]: -0.6735
- logFC of FN1 expression [2]: -0.662
- logFC of FZD5 expression [2]: 0.4466
- logFC of GPC4 expression [2]: 0.486
- logFC of GREM1 expression [2]: -0.8269
- logFC of IFI6 expression [2]: 0.9391
- logFC of IFI35 expression [2]: 0.4412
- logFC of LOX expression [2]: -0.722
- logFC of LOXL1 expression [2]: -0.6279
- logFC of LTA expression [2]: 0.4994
- logFC of MARCO expression [2]: -0.9183
- logFC of MET expression [2]: 0.6707
- logFC of MMP8 expression [2]: -0.8754
- logFC of MMP11 expression [2]: -0.6749
- logFC of NOS1 expression [2]: 0.6684
- logFC of OAS1 expression [2]: 0.6104
- logFC of PDGFRB expression [2]: -0.6732
- logFC of PECAM1 expression [2]: -0.8251
- logFC of PLPP4 expression [2]: -0.6364
- logFC of POSTN expression [2]: -0.9604
- logFC of PTGER4 expression [2]: 0.439
- logFC of SERPINE1 expression [2]: -0.6387
- logFC of SMAD3 expression [2]: 0.4528
- logFC of TIMP1 expression [2]: -0.6101
- logFC of TNF expression [2]: 0.4803
- logFC of TTN expression [2]: 0.5832
- logFC of WWC1 expression [2]: 0.5885
- logFC of XAF1 expression [2]: 0.4529
